The values below come from patent US20250084087A1, “BICYCLIC HETEROCYCLES AS MRGPRX2 ANTAGONISTS” (Incyte Corporation, priority 2023, published 2025).

Each structure is given as a SMILES string.

The IC50 is the concentration that gives 50% inhibition.

The target of assay [1] is T1, MRGPRX2 (Homo sapiens, UniProt Q96LB1).
T1 sequence (Q96LB1 1-330): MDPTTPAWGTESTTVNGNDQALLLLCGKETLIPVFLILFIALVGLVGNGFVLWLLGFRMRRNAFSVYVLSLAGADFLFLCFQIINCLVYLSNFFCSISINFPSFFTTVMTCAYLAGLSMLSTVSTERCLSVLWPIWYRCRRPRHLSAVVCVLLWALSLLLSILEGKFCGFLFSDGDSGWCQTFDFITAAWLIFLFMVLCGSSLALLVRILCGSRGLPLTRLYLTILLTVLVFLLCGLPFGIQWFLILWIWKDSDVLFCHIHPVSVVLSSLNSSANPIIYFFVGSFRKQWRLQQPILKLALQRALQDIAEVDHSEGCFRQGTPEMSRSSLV
The experiment in a line: MRGPRX2 FLIPR calcium mobilization assay. The format is cell-based. Also noted: host or cells: CHO-K1. The note with it: CHO-K1 cells stably expressing human MRGPRX2; Ca2+ release; agonist Cortistatin-14 at EC80. As to the method: Example A. MRGPRX2 FLIPR Calcium Mobilization Assay
Chinese hamster ovary (CHO-K1) cells stably expressing human MRGPRX2 were purchased from Genescript (Piscataway, NJ). The cells were maintained in culture medium (Ham's F-12K) containing 10% (v/v) FBS, 200 μg/mL Zeocin, 100 units/mL penicillin G and 100 μg/mL streptomycin (Life Technologies, Carlsbad, CA). For the assay, the cells were harvested and resuspended with culture medium without Zeocin before plating at 8000 cells per well in 20 μL in 384-well black clear bottom cell culture plates (VWR, Radnor, PA). After 24 hour culture at 37° C. and 5% CO2, the cells were loaded with 20 μL/well of calcium dye (FLIPR Calcium 6 Assay Kit, Molecular Devices, San Jose, CA) diluted in loading buffer (1× Hank's Balanced Salt Solution (HBSS), 5 mM probenecid, 20 mM 4-(2-hydroxyethyl)-1-piperazineethanesulfonic acid (HEPES), pH 7.4, VWR, Radnor, PA) followed with 45 min. incubation at 37° C. and 40 min. at r.t. in the dark. Cells were then treated with the addition of 10 uL/well test compounds with a range of increasing concentrations diluted in the assay buffer (1×HBSS, 20 mM HEPES, pH 7.4, VWR, Radnor, PA) with FLIPR Penta (Molecular Devices. San Jose, CA) and incubated for 30 min. at r.t. Ca^2+ release was measured with FLIPR Penta with 10 seconds basal fluorescence measurement, then 12.5 μL of 5× agonist Cortistatin-14 (Tocris, Minneapolis, MN) at final concentration corresponding to the EC80 were added followed with continued fluorescence signal monitoring for an additional 110 seconds. The base line adjusted (median of first 10s base line) max value of the Relative Fluorescence Unit (RFU) was plotted against compound concentrations. Wells with no compound were served as the positive controls, and wells with high concentration of reference antagonist were used as negative controls. IC50 curves were globally fitted with 3- or 4-parameter Hill equation in a Genedata Screener (Genedata Basel, Switzerland).
Background: A change in cytosolic calcium serves as a functional read-out for many receptors and channels.

The target in assay [2] is T1, MRGPRX2. In words: MRGPRX2 β-Arrestin recruitment assay (PathHunter). It counts as cell-based. Further details: host or cells: CHO-K1 (PathHunter). The note with it: PathHunter CHO-K1 MRGPRX2 β-Arrestin cell line; agonist Cortistatin 14 0.25 μM. Put shortly:
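CHO-K1 PathHunter cells co-expressing ProLink-tagged MRGPRX2 and enzyme-acceptor-tagged β-arrestin were preincubated with compound 1 h at 37° C., then stimulated with cortistatin-14 (0.25 μM final) for 90 min. Enzyme-complementation luminescence read after 1 h detection; data normalized to DMSO and reference antagonist, IC50 from 3- or 4-parameter Hill fit.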
On the technique in general: Arrestin recruitment assays detect the binding of arrestin to an activated receptor.

Turning to `Cn1nc(N2CCC(CNc3cc(C(F)(F)F)nc4cc(C(F)(F)F)nn34)(c3ccc(F)cc3)CC2)ccc1=O` [Example 40, 6-(4-(((2,5-Bis(trifluoromethyl)pyrazolo[1,5-a]pyrimidin-7-yl)amino)methyl)-4-(4-fluorophenyl)piperidin-1-yl)-2-methylpyridazin-3(2H)-one], the IC50 on MRGPRX2 [1] and on MRGPRX2 [2] was 0.1 to 100 nM throughout.
With `Cn1cc(N2CC(CNc3cc(C(F)(F)F)nc4cc(C(F)(F)F)nn34)(c3ccc(F)cc3)C2)nn1` [Example 46, N-((3-(4-Fluorophenyl)-1-(1-methyl-1H-1,2,3-triazol-4-yl)azetidin-3-yl)methyl)-2,5-bis(trifluoromethyl)pyrazolo[1,5-a]pyrimidin-7-amine], the IC50 at MRGPRX2 [1] and at MRGPRX2 [2] was 0.1 to 100 nM throughout.
`NC(=O)c1cccc(N2CC(CNc3cc(C(F)(F)F)nc4cc(C(F)(F)F)nn34)(c3ccc(F)cc3)C2)n1` [Example 47, 6-(3-(((2,5-Bis(trifluoromethyl)pyrazolo[1,5-a]pyrimidin-7-yl)amino)methyl)-3-(4-fluorophenyl)azetidin-1-yl)picolinamide]: the IC50 on MRGPRX2 [1] and on MRGPRX2 [2] was 0.1 to 100 nM each time.
Consider `CN1CC[C@@H]1C(=O)N1CCC(CNc2cc(C(F)(F)F)nc3cc(C(F)(F)F)nn23)(c2ccc(F)cc2)CC1` [Example 50, (R)-(4-(((2,5-Bis(trifluoromethyl)pyrazolo[1,5-a]pyrimidin-7-yl)amino)methyl)-4-(4-fluorophenyl)piperidin-1-yl)(1-methylazetidin-2-yl)methanone], for which the 50% inhibitory concentration (IC50) on MRGPRX2 [1] and at MRGPRX2 [2] was 0.1 to 100 nM in each case.
With `O=C(CN1CCC1)N1CCC(CNc2cc(C(F)(F)F)nc3cc(Br)nn23)(c2ccc(F)cc2)CC1` [Example 60, 2-(Azetidin-1-yl)-1-(4-(((2-bromo-5-(trifluoromethyl)pyrazolo[1,5-a]pyrimidin-7-yl)amino)methyl)-4-(4-fluorophenyl)piperidin-1-yl)ethan-1-one], the IC50 at MRGPRX2 [1] and at MRGPRX2 [2] was 0.1 to 100 nM in each case.
Consider `O=C(NC1CC1)N1CC(CNc2cc(C(F)(F)F)nc3cc(C(F)F)nn23)(c2ccc(F)cc2)C1` [Example 63, N-Cyclopropyl-3-(((2-(difluoromethyl)-5-(trifluoromethyl)pyrazolo[1,5-a]pyrimidin-7-yl)amino)methyl)-3-(4-fluorophenyl)azetidine-1-carboxamide], for which the IC50 at MRGPRX2 [1] and on MRGPRX2 [2] was 0.1 to 100 nM throughout.
With `N#CCCNC1CCC(CNc2cc(C(F)(F)F)nc3cc(Br)nn23)(c2ccccc2)CC1` (centres unmarked) [Example 81, 3-((4-(((2-Bromo-5-(trifluoromethyl)pyrazolo[1,5-a]pyrimidin-7-yl)amino)methyl)-4-phenylcyclohexyl)amino)propanenitrile], the IC50 on MRGPRX2 [1] and on MRGPRX2 [2] was 0.1 to 100 nM throughout.
With `FC(F)(F)c1cc(NCC2(c3ccccc3)CC=CC2)n2nc(Br)cc2n1` [Example 82, 2-Bromo-N-((1-phenylcyclopent-3-en-1-yl)methyl)-5-(trifluoromethyl)pyrazolo[1,5-a]pyrimidin-7-amine], the IC50 at MRGPRX2 [1] and at MRGPRX2 [2] was 0.1 to 100 nM each time.
As for `CNC1CCC(CNc2cc(C(F)(F)F)nc3cc(Br)nn23)(c2ccccc2)CC1` (centres unmarked) [Example 83, 2-Bromo-N-((4-(methylamino)-1-phenylcyclohexyl)methyl)-5-(trifluoromethyl)pyrazolo[1,5-a]pyrimidin-7-amine], the IC50 on MRGPRX2 [1] and at MRGPRX2 [2] was 0.1 to 100 nM throughout.
Take `CC(=O)N(C)C1CCC(CNc2cc(C(F)(F)F)nc3cc(Br)nn23)(c2ccccc2)CC1` (centres unmarked) [Example 85, N-(4-(((2-Bromo-5-(trifluoromethyl)pyrazolo[1,5-a]pyrimidin-7-yl)amino)methyl)-4-phenylcyclohexyl)-N-methylacetamide]: the IC50 on MRGPRX2 [1] and on MRGPRX2 [2] was 0.1 to 100 nM in each case.
